Data on 26 compounds can be found in patent US10590129B2 (Incozen Therapeutics Pvt. Ltd., priority 2010, dated 2020).

In general, inhibition refers to the relative decrease from the control value, in per cent. A low value points to little suppression. What is called melting point is the temperature of the solid-liquid transition.

The structures appear in SMILES notation. A value given as a limit tells only on which side of the number the result lay.

The test system of one data set is MKN-45 cells. The experiment in a line: Inhibition of MKN-45 proliferation (MTT). The following applies: for inhibition at 0.1 µM / inhibition at 1 µM: Homo sapiens, MKN-45, MKN-45 proliferation. The format is cell-based, human. An outline of the steps:
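High-Met human gastric adenocarcinoma MKN-45 cells plated in complete growth medium, compounds added next day and viability read 3 days later by MTT dye reduction.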

In turn, `O=C(NCC(F)(F)F)c1ccc(-c2ccc3nnn(Cc4ccc5ncccc5c4)c3n2)cc1F` [Ex 93, 2-Fluoro-4-(3-(quinolin-6-ylmethyl)-3H-[1,2,3]triazolo[4,5-b]pyridin-5-yl)-N-(2,2,2-trifluoroethyl)benzamide] came in with a melting point of 194 to 196 °C. The inhibition at 0.1 µM in the data set on MKN-45 cells (0.1 μM) is 25 to 50%. This compound registered an inhibition at 1 µM with MKN-45 cells (1 μM) of 25 to 50%.
Regarding `COCCNC(=O)c1ccc(-c2ccc3nnn(Cc4ccc5ncccc5c4)c3n2)cc1F` [Ex 94, 2-Fluoro-N-(2-methoxyethyl)-4-(3-(quinolin-6-ylmethyl)-3H-[1,2,3]triazolo[4,5-b]pyridin-5-yl)benzamide], the melting point was in the range of 162 to 164 °C. For the same compound, in the data set with MKN-45 cells (0.1 μM), the inhibition at 0.1 µM lay within 50 to 75%. Besides, the inhibition at 1 µM in the data set with MKN-45 cells (1 μM) was less than 25%.
The like results for `CC(C)NS(=O)(=O)c1ccc(-c2ccc3nnn(Cc4ccc5ncccc5c4)c3n2)cc1` [Ex 95, N-Isopropyl-4-(3-(quinolin-6-ylmethyl)-3H-[1,2,3]triazolo[4,5-b]pyridin-5-yl)benzenesulfonamide] were, in that order, 154 to 156 °C, less than 25% and 50 to 75%.
`CN(C)c1cccc(-c2ccc3nnn(Cc4ccc5ncccc5c4)c3n2)c1` [Ex 96, N,N-Dimethyl-3-(3-(quinolin-6-ylmethyl)-3H-[1,2,3]triazolo[4,5-b]pyridin-5-yl)aniline]: the melting point fell in the range of 124 to 126 °C. This compound came in with an inhibition at 0.1 µM in the data set with MKN-45 cells (0.1 μM) of less than 25%. The compound further yielded an inhibition at 1 µM with MKN-45 cells (1 μM) of less than 25%.
Compound `CC(C)CNC(=O)c1ccc(-c2ccc3nnn(Cc4ccc5ncccc5c4)c3n2)cc1F` [Ex 97, 2-Fluoro-N-isobutyl-4-(3-(quinolin-6-ylmethyl)-3H-[1,2,3]triazolo[4,5-b]pyridin-5-yl)benzamide] showed a melting point of 158 to 160 °C. The same compound gave an inhibition at 0.1 µM in the data set with MKN-45 cells (0.1 μM) of 25 to 50%. In the data set with MKN-45 cells (1 μM), this compound gave an inhibition at 1 µM of 25 to 50%.
As to `O=C(NC1CCCC1)c1ccc(-c2ccc3nnn(Cc4ccc5ncccc5c4)c3n2)cc1F` [Ex 98, N-Cyclopentyl-2-fluoro-4-(3-(quinolin-6-ylmethyl)-3H-[1,2,3]triazolo[4,5-b]pyridin-5-yl)benzamide], the melting point fell in the range of 166 to 168 °C. Further, in the data set with MKN-45 cells (0.1 μM), the inhibition at 0.1 µM lay within 25 to 50%. Further, in the data set with MKN-45 cells (1 μM), the inhibition at 1 µM is 50 to 75%.
Taken in the same sequence, the figures for `CC(C)NC(=O)c1ccc(-c2ccc3nnn(Cc4ccc5ncccc5c4)c3n2)cc1F` [Ex 99, 2-Fluoro-N-isopropyl-4-(3-(quinolin-6-ylmethyl)-3H-[1,2,3]triazolo[4,5-b]pyridin-5-yl)benzamide] were 177 to 179 °C, 50 to 75% and 50 to 75%.
Taken in the same sequence, the figures for `CCCNC(=O)c1ccc(-c2ccc3nnn(Cc4ccc5ncccc5c4)c3n2)cc1Cl` [Ex 102, 2-Chloro-N-propyl-4-(3-(quinolin-6-ylmethyl)-3H-[1,2,3]triazolo[4,5-b]pyridin-5-yl)benzamide] were 128 to 130 °C, 50 to 75% and 75 to 100%.
`CNC(=O)c1ccc(-c2ccc3nnn(C(C)(C)c4ccc5ncccc5c4)c3n2)cc1F` [Ex 103, 2-Fluoro-N-methyl-4-(3-(2-(quinolin-6-yl)propan-2-yl)-3H-[1,2,3]triazolo[4,5-b]pyridin-5-yl)benzamide] displayed a melting point of 171 to 173 °C. This compound had an inhibition at 0.1 µM with MKN-45 cells (0.1 μM) of less than 25%.
Take `O=C(NC1CCC1)c1ccc(-c2ccc3nnn(Cc4ccc5ncccc5c4)c3n2)cc1F` [Ex 104, N-Cyclobutyl-2-fluoro-4-(3-(quinolin-6-ylmethyl)-3H-[1,2,3]triazolo[4,5-b]pyridin-5-yl)benzamide]: the melting point lay in the range of 171 to 174 °C. In the data set on MKN-45 cells (0.1 μM), this compound displayed an inhibition at 0.1 µM of 50 to 75%. Moreover, in the data set on MKN-45 cells (1 μM), the inhibition at 1 µM is 75 to 100%.
`CCCNC(=O)c1ccc(-c2ccc3nnn(C(C)(C)c4ccc5ncccc5c4)c3n2)cc1F` [Ex 105, 2-Fluoro-N-propyl-4-(3-(2-(quinolin-6-yl)propan-2-yl)-3H-[1,2,3]triazolo[4,5-b]pyridin-5-yl)benzamide] gave a melting point of 162 to 164 °C. Also, in the data set with MKN-45 cells (0.1 μM), the inhibition at 0.1 µM is less than 25%. Moreover, the inhibition at 1 µM in the data set on MKN-45 cells (1 μM) is less than 25%.
In the case of `CC(C)(c1ccc2ncccc2c1)n1nnc2ccc(-c3ccc(C(=O)NC4CC4)c(F)c3)nc21` [Ex 106, N-Cyclopropyl-2-fluoro-4-(3-(2-(quinolin-6-yl)propan-2-yl)-3H-[1,2,3]triazolo[4,5-b]pyridin-5-yl)benzamide], the melting point lay in the range of 156 to 159 °C. In addition, in the data set with MKN-45 cells (0.1 μM), the inhibition at 0.1 µM is less than 25%. The inhibition at 1 µM with MKN-45 cells (1 μM) lay within 75 to 100%.
Regarding `CCNC(=O)c1ccc(-c2ccc3nnn(C(C)(C)c4ccc5ncccc5c4)c3n2)cc1F` [Ex 107, N-Ethyl-2-fluoro-4-(3-(2-(quinolin-6-yl)propan-2-yl)-3H-[1,2,3]triazolo[4,5-b]pyridin-5-yl)benzamide], the melting point fell in the range of 132 to 135 °C. Besides, the inhibition at 0.1 µM with MKN-45 cells (0.1 μM) is less than 25%.
The like results for `CNC(=O)c1ccc(-c2ccc3nnn(Cc4ccc5ncccc5c4)c3n2)cc1Cl` [Ex 109, 2-Chloro-N-methyl-4-(3-(quinolin-6-ylmethyl)-3H-[1,2,3]triazolo[4,5-b]pyridin-5-yl)benzamide] were, in that order, 227 to 230 °C and 75 to 100%.
Regarding `CONC(=O)c1ccc(-c2ccc3nnn(Cc4ccc5ncccc5c4)c3n2)cc1F.Cl` [Ex 110, 2-Fluoro-N-methoxy-4-(3-(quinolin-6-ylmethyl)-3H-[1,2,3]triazolo[4,5-b]pyridin-5-yl)benzamide hydrochloride], the melting point is 145 to 147 °C. The “Inhibition (% Inhibition of MKN-45 proliferation)” value with MKN-45 cells (MKN-45 proliferation, 0.1 μM) is recorded as “B (B = ≥50-<75%)”. In addition, in the data set on MKN-45 cells (MKN-45 proliferation, 1 μM), the “% inhibition @ 1 uM” value is listed as “B (B = ≥50-<75%)”.
`O=C(Nc1nccs1)c1ccc(-c2ccc3nnn(Cc4ccc5ncccc5c4)c3n2)cc1F` [Ex 111, 2-Fluoro-4-(3-(quinolin-6-ylmethyl)-3H-[1,2,3]triazolo[4,5-b]pyridin-5-yl)-N-(thiazol-2-yl)benzamide]: the melting point fell in the range of 204 to 206 °C. This compound also gave an inhibition at 0.1 µM in the data set with MKN-45 cells (0.1 μM) of less than 25%. For the same compound, the inhibition at 1 µM with MKN-45 cells (1 μM) fell in the range of 75 to 100%.
Taken in the same sequence, the figures for `O=C(NCCC(=O)N1CCCC1)c1ccc(-c2ccc3nnn(Cc4ccc5ncccc5c4)c3n2)cc1F` [Ex 114, 2-Fluoro-N-(3-oxo-3-(pyrrolidin-1-yl)propyl)-4-(3-(quinolin-6-ylmethyl)-3H-[1,2,3]triazolo[4,5-b]pyridin-5-yl)benzamide] were 151 to 153 °C, 50 to 75% and 50 to 75%.
Taken in the same sequence, the figures for `O=C(NO)c1ccc(-c2ccc3nnn(Cc4ccc5ncccc5c4)c3n2)cc1F` [Ex 115, 2-Fluoro-N-hydroxy-4-(3-(quinolin-6-ylmethyl)-3H-[1,2,3]triazolo[4,5-b]pyridin-5-yl)benzamide] were 180 to 182 °C, less than 25% and 75 to 100%.
Taken in the same sequence, the figures for `CC(C)NC(=O)c1ccc(-c2ccc3nnn(Cc4ccc5ncccc5c4)c3n2)cc1` [Ex 116, N-Isopropyl-4-(3-(quinolin-6-ylmethyl)-3H-[1,2,3]triazolo[4,5-b]pyridin-5-yl)benzamide] were 181 to 183 °C, less than 25% and 75 to 100%.
As for `O=C(NCCC(=O)N1CCCCC1)c1ccc(-c2ccc3nnn(Cc4ccc5ncccc5c4)c3n2)cc1F` [Ex 117, 2-Fluoro-N-(3-oxo-3-(piperidin-1-yl)propyl)-4-(3-(quinolin-6-ylmethyl)-3H-[1,2,3]triazolo[4,5-b]pyridin-5-yl)benzamide], the melting point lay in the range of 109 to 111 °C. In the data set on MKN-45 cells (0.1 μM), this compound showed an inhibition at 0.1 µM of 50 to 75%. The compound further yielded an inhibition at 1 µM in the data set on MKN-45 cells (1 μM) of 75 to 100%.
The like results for `CCNC(=O)Nc1ccc(-c2ccc3nnn(Cc4ccc5ncccc5c4)c3n2)cc1` [Ex 118, 1-Ethyl-3-(4-(3-(quinolin-6-ylmethyl)-3H-[1,2,3]triazolo[4,5-b]pyridin-5-yl)phenyl)urea] were, in that order, 193 to 196 °C, less than 25% and 75 to 100%.
`O=C(NCCC(=O)N1CCOCC1)c1ccc(-c2ccc3nnn(Cc4ccc5ncccc5c4)c3n2)cc1F` [Ex 120, 2-Fluoro-N-(3-morpholino-3-oxopropyl)-4-(3-(quinolin-6-ylmethyl)-3H-[1,2,3]triazolo[4,5-b]pyridin-5-yl)benzamide] displayed a melting point of 212 to 215 °C. Moreover, in the data set on MKN-45 cells (0.1 μM), the inhibition at 0.1 µM was 75 to 100%. In the data set with MKN-45 cells (1 μM), this compound returned an inhibition at 1 µM of 25 to 50%.
The like results for `O=C(Nc1nc[nH]n1)c1ccc(-c2ccc3nnn(Cc4ccc5ncccc5c4)c3n2)cc1Cl` [Ex 122, 2-chloro-4-(3-(quinolin-6-ylmethyl)-3H-[1,2,3]triazolo[4,5-b]pyridin-5-yl)-N-(1H-1,2,4-triazol-3-yl)benzamide] were, in that order, 286 to 288 °C, less than 25% and less than 25%.
Taken in the same sequence, the figures for `O=C(NCCCN1CCCCC1)c1ccc(-c2ccc3nnn(Cc4ccc5ncccc5c4)c3n2)cc1F` [Ex 124, 2-Fluoro-N-(3-(piperidin-1-yl)propyl)-4-(3-(quinolin-6-ylmethyl)-3H-[1,2,3]triazolo[4,5-b]pyridin-5-yl)benzamide] were 135 to 137 °C, 75 to 100% and 50 to 75%.
Regarding `c1cnc2ccc(Cn3cnc4ccc(-c5cn[nH]c5)nc43)cc2c1` [Ex 147, 6-((5-(1H-Pyrazol-4-yl)-3H-imidazo[4,5-b]pyridin-3-yl)methyl)quinoline], the melting point fell in the range of 214 to 216 °C. This compound also had an inhibition at 1 µM in the data set on MKN-45 cells (1 μM) of less than 25%.
Taken in the same sequence, the figures for `Cn1cc(-c2ccc3ncn(Cc4ccc5ncccc5c4)c3n2)cn1` [Ex 148, 6-((5-(1-Methyl-1H-pyrazol-4-yl)-3H-imidazo[4,5-b]pyridin-3-yl)methyl)quinoline] were 150 to 152 °C and less than 25%.
